Measured values as given in patent publication EP0684822B1, “CARBOCYCLIC DEOXYGUANOSINE ANALOGS FOR THE TREATMENT OF VIRAL INFECTIONS” (SOUTHERN RESEARCH INSTITUTE, priority 1993, dated 1994).
≈ marks a conversion by molar mass, not a printed value. Where “and” joins values, the source holds several entries; their conditions need not be identical. Equal values may be shown once.

What was measured:
HSV-2 (strain MS, TK+) = assay: Antiviral activity against HSV-2; format: cell-based; settings: HSV-2; for EC50: Human alphaherpesvirus 2, read-out: Mic50
Method: (§1) D-2'-CdG and L-2'-CdG were tested, alongside D,L-2'-CdG, against both HSV-1 (strain 377, TK+; obtained from Dr. Earl Kern, University of Alabama) and HSV-2 (strain MS, TK+; also obtained from Dr. Earl Kern). In these tests (Table 5), Ara-A and acyclovir (ACV) were the positive control drugs. In four tests vs. HSV-1, the antiviral activity (VR) and potency (MIC50) of D-2'-CdG were approximately the same as those of racemic 2-CdG. L-2'-CdG was only modestly active.
These compounds were tested against HSV-2(TK^+). The VR of ACV was somewhat higher than the VR values of D-2'-CdG and D,L-2'-CdG, but the values of MIC50 of the two forms of 2'-CdG were lower. In addition, experiments comparing the antiviral activity D-2'-CdG with acyclovir against HSV-1 in human foreskin fibroblasts have shown an even greater potency, in favor of D-2'-CdG.

[1] = tested on: MRC5 cell monolayer cultures; assay: Drug cytotoxicity (gross morphology) in MRC5 cell monolayer cultures; format: cell-based
HSV-1 TK = target: T1, HSV-1 TK (Human herpesvirus 1, UniProt P0DTH5); assay: Competitive inhibition of [3H]-thymidine phosphorylation by partially purified HSV-1 TK; format: biochemical
T1 construct: HSV thymidine kinase (HSV TK) was isolated from HELA (BU25) cells infected with the SW148 strain of HSV-1; made in house; host or cells: HeLa (BU25) thymidine-kinase-deficient cells infected with HSV-1 strain S148/SW148
Method: The Ki's were determined from a plot of the slope of each line versus the concentration of the competitor (D-, L, or D,L-2'CdG) and are summarized below: TABLE 2

HBV = HBV DNA production and replication in 2.2.15 cell cultures; format: cell-based, Hepatitis B virus (HBV); settings: for INTRACELLULAR HBV DNA INTEG. / INTRACELLULAR HBV DNA MONO. / INTRACELLULAR HBV DNA RI: 24 hours following 10th day of treatment; for HBV DNA IN CULTURE MEDIUM DAY 0: day 0 of treatment
Method: 2'-CdG was tested at three concentrations (50 ng/ml, 500 ng/ml, and 5 ug/ml) against the HBV-producing, human liver cell line, 2.2.15 (Sells et al., J. Virol. 62:2836, 1989). A racemic (D,L) preparation, as well as the purified D and L isomers were tested. For these analyses compounds were tested in duplicate at all concentrations. Ara-AMP and ddG (2'3'-dideoxyguanosine) were used as HBV inhibitory control compounds. […] The nucleoside analog, ddG was used as an additional control compound since ddG has activity against duck hepatitis B virus in chronically infected Peking ducks (Lee et al., Antimicrob. Agents Chemother. 33:336, 1989) and 2'-CdG is also a deoxyguanosine analog.
2.2.15 cells were seeded in 6 well culture plates and grown to confluence over a 10 day period in medium with 5% FBS. Test compounds were then added daily for a continuous 10 day period in medium with 1% dialyzed FBS. […] Compounds were tested, in duplicate cultures, at 3 concentrations covering a 100-fold range. Culture medium (changed daily during the treatment period) was collected and stored for analysis of extracellular (virion) HBV DNA from days 0, 3, 6, and 10 of the treatment period. This allowed for an analysis of the level of HBV virion production during discrete 24 hour intervals and reduced the potential for the buildup of toxic metabolites derived from the test compounds. Treated cells were lysed following the 10th day of treatment for the analysis of intracellular HBV genomic forms. HBV DNA was analyzed in a quantitative manner for (i) overall levels (both extracellular and intracellular DNA) and (ii) the relative rate of HBV replication (intracellular DNA only).
HBV DNA levels were measured by comparison to known amounts of HBV DNA standards applied to every nitrocellulose filter (gel or slot blot) using an AMBIS Beta Scanner. Standard curves, generated by multiple analyses, were used to correlate CPM measurements with relative levels of target HBV DNA. The levels of HBV DNA in each of three classes of intracellular viral genomic forms were individually quantitated: integrated HBV DNA, episomal monomeric genomes and HBV DNA replication intermediates (RI). Integrated HBV DNA was used to normalize the relative amounts of DNA in each lane because the levels of this class of HBV DNA would be expected to remain constant on a per cell basis. The levels of the monomeric HBV genomes and RI were used as an indicator of the relative level of HBV replication.

[2] = tested on: MRC5 cell monolayer cultures; assay: Drug cytotoxicity (gross morphology) in MRC5 cell monolayer cultures; format: cell-based; remark: listed apart in the source
Method: (§2) The D- and L-enantiomers of 2'-CdG were prepared from racemic C-2,6-DAPR by an enzymatic method as described above Secrist et al. (J. Med. Chem. 30:746, 1987). The effectiveness of racemic-2'-CdG and of D-2'-CdG in reducing CMV yields in MRC5 cell monolayer cultures was determined by a plaque assay with the results set forth in tables 6 and 7.

CMV = CMV yield reduction in MRC5 cell monolayer cultures (plaque assay); format: cell-based, human CMV; settings: for CMV Yield: virus control 5.5
Method: as §2

HSV-1 (strain 377, TK+) = assay: Antiviral activity against HSV-1; format: cell-based; settings: for VR / EC50: HSV-1, range of tests; for EC50: Human alphaherpesvirus 1, read-out: Mic50
Method: as §1

T1 sequence (P0DTH5 whole entry): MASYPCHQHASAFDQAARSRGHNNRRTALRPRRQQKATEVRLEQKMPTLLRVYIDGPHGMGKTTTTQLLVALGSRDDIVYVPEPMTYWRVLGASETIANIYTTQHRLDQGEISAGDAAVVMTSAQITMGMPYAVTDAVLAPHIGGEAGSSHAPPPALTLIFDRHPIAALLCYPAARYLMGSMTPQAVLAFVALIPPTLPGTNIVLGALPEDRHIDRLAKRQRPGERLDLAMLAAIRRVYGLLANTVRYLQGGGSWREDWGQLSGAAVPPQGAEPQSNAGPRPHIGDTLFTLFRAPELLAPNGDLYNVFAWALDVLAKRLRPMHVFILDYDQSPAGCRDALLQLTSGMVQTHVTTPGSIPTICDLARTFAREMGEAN

Nc1nc2c(ncn2[C@@H]2C[C@H](CO)[C@@H](O)C2)c(=O)[nH]1 (racemic) [D,L-2'-CdG, (±)-2-amino-1,9-dihydro-[(1α,3β,4α)-3-hydroxy-4(hydroxymethyl)cyclopentyl]-6H-purin-6-one]
VR (HSV-2 (strain MS, TK+)): 3.7 | EC50 (HSV-2 (strain MS, TK+)): 2.6 µg/mL (≈ 9.8 µM) | Drug Cytotoxicity (Gross Morphology) ([1]; 0.32 µg/mL): 0 | Drug Cytotoxicity (Gross Morphology) ([1]; 3.2 µg/mL): v. sl. toxicity | Drug Cytotoxicity (Gross Morphology) ([1]; 10 µg/mL): sl. toxicity | Ki (HSV-1 TK): 3 µM | INTRACELLULAR HBV DNA INTEG. (HBV; 50ng/ml): 1.3 PG/UG CELL DNA and 1.2 PG/UG CELL DNA | INTRACELLULAR HBV DNA MONO. (HBV; 50ng/ml): 2.1 PG/UG CELL DNA and 1.4 PG/UG CELL DNA | INTRACELLULAR HBV DNA RI (HBV; 50ng/ml): 12 PG/UG CELL DNA and 18 PG/UG CELL DNA | HBV DNA IN CULTURE MEDIUM DAY 0 (HBV; 50ng/ml): 120 pg/mL and 95 pg/mL | HBV DNA IN CULTURE MEDIUM DAY 3 (HBV; 50ng/ml): 88 pg/mL and 75 pg/mL | HBV DNA IN CULTURE MEDIUM DAY 6 (HBV; 50ng/ml): 55 pg/mL and 77 pg/mL | HBV DNA IN CULTURE MEDIUM DAY 10 (HBV; 50ng/ml): 11 pg/mL and 6 pg/mL | INTRACELLULAR HBV DNA INTEG. (HBV; 500ng/ml): 1.4 PG/UG CELL DNA and 1.5 PG/UG CELL DNA | INTRACELLULAR HBV DNA MONO. (HBV; 500ng/ml): 1.8 PG/UG CELL DNA and 2.0 PG/UG CELL DNA | HBV DNA IN CULTURE MEDIUM DAY 0 (HBV; 500ng/ml): 89 pg/mL and 90 pg/mL | HBV DNA IN CULTURE MEDIUM DAY 3 (HBV; 500ng/ml): 41 pg/mL and 55 pg/mL | HBV DNA IN CULTURE MEDIUM DAY 10 (HBV; 500ng/ml): 0.1 pg/mL and 0.2 pg/mL | INTRACELLULAR HBV DNA INTEG. (HBV; 5 ug/ml): 1.0 PG/UG CELL DNA and 1.6 PG/UG CELL DNA | INTRACELLULAR HBV DNA MONO. (HBV; 5 ug/ml): 1.9 PG/UG CELL DNA and 1.7 PG/UG CELL DNA | HBV DNA IN CULTURE MEDIUM DAY 0 (HBV; 5 ug/ml): 87 pg/mL and 88 pg/mL | HBV DNA IN CULTURE MEDIUM DAY 3 (HBV; 5 ug/ml): 16 pg/mL and 24 pg/mL | HBV DNA IN CULTURE MEDIUM DAY 6 (HBV; 5 ug/ml): 0.3 pg/mL and 0.4 pg/mL | HBV DNA IN CULTURE MEDIUM DAY 10 (HBV; 5 ug/ml): 0 pg/mL | MIC (HBV; Hepatitis B virus, 240 h, HBV replication in 2.2.15 cells, read-out: minimal inhibitory concentration): ~0.05 µg/mL (≈ 0.188 µM) | Drug Cytotoxicity (Gross Morphology) ([2]; 0.032 µg/mL): 0 | Drug Cytotoxicity (Gross Morphology) ([2]; 0.1 µg/mL): 0 | Drug Cytotoxicity (Gross Morphology) ([2]; 1.0 µg/mL): 0 | Drug Cytotoxicity (Gross Morphology) ([2]; 32 µg/mL): toxic | CMV Yield (CMV; 0.032 µg/mL): 5.4 log10CCID50/mL | CMV Yield (CMV; 0.1 µg/mL): 5.0 log10CCID50/mL | CMV Yield (CMV; 0.32 µg/mL): 4.5 log10CCID50/mL | CMV Yield (CMV; 1.0 µg/mL): 3.6 log10CCID50/mL | CMV Yield (CMV; 3.2 µg/mL): 1.0 log10CCID50/mL | CMV Yield (CMV; 10 µg/mL): 0 log10CCID50/mL | inhibition at 0.032 µg/mL (CMV; Human betaherpesvirus 5, MRC5, 0.032 µg/mL, read-out: Reduction (%) of CPE by CdG at Time of Harvest): 0% | inhibition at 0.1 µg/mL (CMV; Human betaherpesvirus 5, MRC5, 0.1 µg/mL, read-out: Reduction (%) of CPE by CdG at Time of Harvest): 0% | inhibition at 0.32 µg/mL (CMV; Human betaherpesvirus 5, MRC5, 0.32 µg/mL, read-out: Reduction (%) of CPE by CdG at Time of Harvest): 20% | inhibition at 1 µg/mL (CMV; Human betaherpesvirus 5, MRC5, 1.0 µg/mL, read-out: Reduction (%) of CPE by CdG at Time of Harvest): 95% | inhibition at 3.2 µg/mL (CMV; Human betaherpesvirus 5, MRC5, 3.2 µg/mL, read-out: Reduction (%) of CPE by CdG at Time of Harvest): 100% | inhibition at 10 µg/mL (CMV; Human betaherpesvirus 5, MRC5, 10 µg/mL, read-out: Reduction (%) of CPE by CdG at Time of Harvest): 100% | EC50 (CMV; Human betaherpesvirus 5, MRC5 cells, read-out: MIC50): 0.069 µg/mL (≈ 0.26 µM) | VR (HSV-1 (strain 377, TK+)): 5.3-7.0 | EC50 (HSV-1 (strain 377, TK+)): 0.2 to 0.3 µg/mL (≈ 0.754 to 1.13 µM) | potency relative to ACV (HSV-1 (strain 377, TK+); more potent than ACV): 5-10 times

Nc1ncnc2c1ncn2[C@@H]1O[C@H](COP(=O)(O)O)[C@@H](O)[C@@H]1O [ARA-AMP, adenine arabinoside monophosphate, reference compound]
INTRACELLULAR HBV DNA INTEG. (HBV; 300 UG/ML): 1.3 PG/UG CELL DNA and 1.1 PG/UG CELL DNA | INTRACELLULAR HBV DNA MONO. (HBV; 300 UG/ML): 0.1 PG/UG CELL DNA | INTRACELLULAR HBV DNA RI (HBV; 300 UG/ML): 0.2 PG/UG CELL DNA and 0.3 PG/UG CELL DNA | HBV DNA IN CULTURE MEDIUM DAY 0 (HBV; 300 UG/ML): 100 pg/mL and 95 pg/mL | HBV DNA IN CULTURE MEDIUM DAY 3 (HBV; 300 UG/ML): 25 pg/mL and 30 pg/mL | HBV DNA IN CULTURE MEDIUM DAY 6 (HBV; 300 UG/ML): 0 pg/mL | HBV DNA IN CULTURE MEDIUM DAY 10 (HBV; 300 UG/ML): 0 pg/mL

Nc1nc2c(ncn2COCCO)c(=O)[nH]1 [Acyclovir, acyloguanosine, reference compound]
VR (HSV-2 (strain MS, TK+)): 4.5 | EC50 (HSV-2 (strain MS, TK+)): 5.3 µg/mL (≈ 23.5 µM) | VR (HSV-1 (strain 377, TK+)): 5.7-6.5 | EC50 (HSV-1 (strain 377, TK+)): 1.5 to 2.9 µg/mL (≈ 6.66 to 12.9 µM)
